Target: IgE-Tb / sFcεRIα-Y131A-AF488 (Homo sapiens, UniProt P01854, N146Q/N252Q)
Test: IgE-Tb / sFcεRIα-Y131A-AF488 FRET assay (protocol for examples 234 to 501)
Type: binding
Conditions: examples 234 to 501: compound with IgE-Tb 30 minutes before sFcεRIα-Y131A-AF488, incubated 18 hours at room temperature; read-out: Y131A FRET IC50 range
In short: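 Compounds (10-point 3-fold series, top usually 10 μM, 2% DMSO) preincubated 30 min with 5 nM IgE-Tb, then 25 nM sFcεRIα-Y131A-AF488 added; 18 h at room temperature in the dark. TR-FRET ratio 520/490 nm after 337 nm excitation, background-subtracted; IC50 by four-parameter logistic fit.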

Chain of IgE-Tb / sFcεRIα-Y131A-AF488 (P01854 whole entry N146Q/N252Q): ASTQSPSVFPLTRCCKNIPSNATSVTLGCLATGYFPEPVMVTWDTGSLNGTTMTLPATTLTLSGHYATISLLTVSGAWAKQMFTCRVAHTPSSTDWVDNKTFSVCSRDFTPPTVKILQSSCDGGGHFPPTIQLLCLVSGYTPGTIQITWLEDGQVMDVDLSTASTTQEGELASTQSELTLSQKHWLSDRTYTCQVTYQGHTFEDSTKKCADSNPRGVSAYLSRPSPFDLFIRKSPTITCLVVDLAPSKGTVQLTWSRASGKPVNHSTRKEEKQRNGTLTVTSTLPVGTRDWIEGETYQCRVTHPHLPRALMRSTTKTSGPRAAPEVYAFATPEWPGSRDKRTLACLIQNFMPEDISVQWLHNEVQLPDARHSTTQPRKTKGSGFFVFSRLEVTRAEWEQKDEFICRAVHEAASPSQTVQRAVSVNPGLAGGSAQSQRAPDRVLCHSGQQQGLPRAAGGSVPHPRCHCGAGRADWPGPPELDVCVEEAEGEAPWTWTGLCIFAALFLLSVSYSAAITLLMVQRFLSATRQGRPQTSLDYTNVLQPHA

`Cn1nc(OC(F)F)cc1Nc1nncn1[C@H]1CCc2sc(NC(=O)[C@H]3C[C@@H]3F)c(C(=O)NCC3CC3)c2C1` [Example 313, (5S)—N-(cyclopropylmethyl)-5-[3-[[5-(difluoromethoxy)-2-methyl-pyrazol-3-yl]amino]-1,2,4-triazol-4-yl]-2-[[(1R,2S)-2-fluorocyclopropanecarbonyl]amino]-4,5,6,7-tetrahydrobenzothiophene-3-carboxamide] was tested, and the IC50 was under 1000 nM.

`Cn1nc(OC(F)F)cc1Nc1nncn1[C@H]1CCc2sc(NC(=O)[C@H]3C[C@@H]3F)c(C(=O)NC[C@@H]3C[C@@H]3F)c2C1` [Example 322, (5S)-5-[3-[[5-(difluoromethoxy)-2-methylpyrazol-3-yl]amino]-1,2,4-triazol-4-yl]-2-[[(1R,2S)-2-fluorocyclopropanecarbonyl]amino]-N-[[(1S,2S)-2-fluorocyclopropyl]methyl]-4,5,6,7-tetrahydro-1-benzothiophene-3-carboxamide] gave an IC50 of under 1000 nM.

For `Cc1nscc1Nc1nncn1[C@H]1CCc2sc(NC(=O)C3CC34CC4)c(C(=O)NCC3CC3)c2C1` (stereo partly drawn) [Example 329, (5S)—N-(cyclopropylmethyl)-5-[3-[(3-methyl-1,2-thiazol-4-yl)amino]-1,2,4-triazol-4-yl]-2-(spiro[2.2]pentane-2-carbonylamino)-4,5,6,7-tetrahydro-1-benzothiophene-3-carboxamide], the IC50 was under 1000 nM.

`COc1cc(Nc2nncn2[C@H]2CCc3sc(NC(=O)C4CC4)c(C(=O)NCC4CC4)c3C2)n(C)n1` [Example 337, (5S)-2-(cyclopropanecarbonylamino)-N-(cyclopropylmethyl)-5-[3-[(5-methoxy-2-methylpyrazol-3-yl)amino]-1,2,4-triazol-4-yl]-4,5,6,7-tetrahydro-1-benzothiophene-3-carboxamide] showed an IC50 of under 1000 nM.

`Cn1nc(OC(F)F)cc1Nc1nncn1[C@H]1CCc2sc(NC(=O)[C@H]3C[C@H](F)C3)c(C(=O)NCC3CC3)c2C1` [Example 343, (5S)—N-(cyclopropylmethyl)-5-[3-[[5-(difluoromethoxy)-2-methylpyrazol-3-yl]amino]-1,2,4-triazol-4-yl]-2-[trans-(3-fluorocyclobutanecarbonyl)amino]-4,5,6,7-tetrahydro-1-benzothiophene-3-carboxamide] gave an IC50 of under 1000 nM.

`Cn1nc(OC(F)F)cc1Nc1nncn1[C@H]1CCc2sc(NC(=O)C3CC(F)(F)C3)c(C(=O)NCC3CC3)c2C1` [Example 346, (5S)—N-(cyclopropylmethyl)-2-[(3,3-difluorocyclobutanecarbonyl)amino]-5-[3-[[5-(difluoromethoxy)-2-methylpyrazol-3-yl]amino]-1,2,4-triazol-4-yl]-4,5,6,7-tetrahydro-1-benzothiophene-3-carboxamide] showed an IC50 of under 1000 nM.

In the case of `Cn1nc(OC(F)F)cc1Nc1nncn1[C@H]1CCc2sc(NC(=O)[C@H]3C[C@@H](F)C3)c(C(=O)NCC3CC3)c2C1` [Example 347, (5S)—N-(cyclopropylmethyl)-5-[3-[[5-(difluoromethoxy)-2-methylpyrazol-3-yl]amino]-1,2,4-triazol-4-yl]-2-[cis-(3-fluorocyclobutanecarbonyl)amino]-4,5,6,7-tetrahydro-1-benzothiophene-3-carboxamide], the IC50 is reported as under 1000 nM.

For `Cn1nc(OC(F)F)cc1Nc1nncn1[C@H]1CCc2sc(NC(=O)C3CC3)c(C(=O)NCC3CC3)c2C1` [Example 351, (5S)-2-(cyclopropanecarbonylamino)-N-(cyclopropylmethyl)-5-[3-[[5-(difluoromethoxy)-2-methylpyrazol-3-yl]amino]-1,2,4-triazol-4-yl]-4,5,6,7-tetrahydro-1-benzothiophene-3-carboxamide], the IC50 was under 1000 nM.

`C[C@H]1C[C@@H]1C(=O)Nc1sc2c(c1C(=O)NCC1CC1)C[C@@H](n1cnnc1Nc1cc(OC(F)F)nn1C)CC2` [Example 352, (5S)—N-(cyclopropylmethyl)-5-[3-[[5-(difluoromethoxy)-2-methylpyrazol-3-yl]amino]-1,2,4-triazol-4-yl]-2-[[(1S,2S)-2-methylcyclopropanecarbonyl]amino]-4,5,6,7-tetrahydro-1-benzothiophene-3-carboxamide] gave an IC50 of under 1000 nM.

From US12018021B2 (UCB Biopharma SRL, priority 2018, dated 2024)
